Test results published in patent publication US20250326744A1, “PIPERAZINE DERIVATIVE OR SALT THEREOF, AND PHARMACEUTICAL COMPOSITION” (priority 2022, published 2025).
Structures can show the parent of a compound that is named as a salt.

Experiments:
mexB (EC) strain = assay: Efflux ability inhibition effect on drug efflux pump MexB (Test Examples 1 and 3): proliferation (OD595) of mexB (EC) strain with EM or LVFX at 1/4 MIC, EC75; assay type: cell-based, Escherichia coli; conditions: Table 51, Test Example 1, 16 to 20 hours culture, OD595; for EC75, mexB (EC) strain, EM: combined with EM at 1/4 MIC; for EC75, mexB (EC) strain, LVFX: combined with LVFX at 1/4 MIC
Method: (§1) The efflux ability inhibition effect of the test compound on the drug efflux pump was evaluated using the bacterial proliferative ability in the presence of EM or LVFX as an index.
(§2) EM is a macrolide antibacterial agent and is a drug that is discharged outside the bacteria by MexB and MexY LVFX is a quinolone antibacterial agent and is a drug that is discharged outside the bacteria by MexB and MexY In a case where the test compound has an efflux ability inhibitory ability against the drug efflux pump, the proliferation of bacteria is suppressed by the combined use of EM or LVFX and the test compound, as compared with the case where EM or LVFX is used alone.
(§3) A mutant strain (hereinafter, referred to as an “mexB (EC) strain”) obtained by transferring the genes of the main multidrug efflux system MexAB-OprM of Pseudomonas aeruginosa described in Nature, 2013, Vol. 500, pp. 102 to 106 as a plasmid into Escherichia coli strains in which the acrB and tolC genes of the multidrug efflux system AcrAB-TolC were deleted as described in Journal of Infection and Chemotherapy 2008, Vol. 14, pp. 23 to 29, and a gene transfer strain (hereinafter, referred to as an “mexY (EC) strain”) of another main multidrug efflux system MexXY-OprM of Pseudomonas aeruginosa were used for the evaluation of test compounds.
(§4) In the mexB (EC) strain, an expression level of MexB of the drug efflux pump is accelerated, and in the mexY (EC) strain, an expression level of MexY of the drug efflux pump is accelerated.
(§5) For culturing each Escherichia coli strain, a 96-well plate (amount of culture medium per well: 100 μL) was used and Luria-Bertani broth (LB) culture medium was used. The inoculation amount of the bacteria was set to 10^4 to 5 CFU/well.
(§6) The mexB (EC) strain and the mexY (EC) strain were cultured for 16 to 20 hours in a culture medium to which EM or LVFX and test compounds at various concentrations (0 to 800 μM) were added, and the proliferation of the bacterial strains was evaluated by optical turbidity at 595 nm (OD595). The concentration of the antibacterial agents (EM and LVFX) in the culture medium were each set to ¼ of the minimum inhibitory concentration (MIC) (hereinafter, referred to as ¼ MIC) of the single antibacterial agent.
(§7) The proliferation of bacteria in a case where the antibacterial agent was added at the concentration of ¼ MIC in a case where the test compound was not added was measured, and compared with the proliferation of bacteria in a case where the test compound was contained, and the lowest concentration of the test compound at which the proliferation was inhibited by 75% or more was defined as the drug efflux pump inhibitory ability of the test compound as 75% inhibitory effect concentration (EC75).
(§8) The drug efflux pump inhibitory ability of each test compound in a case of being used in combination with the antibacterial agent against the mexB (EC) strain and the mexY (EC) strain was evaluated as follows according to the value of EC75. • S: EC75≤[…] • A: 12.5 μM<EC75≤25 μM • B: 25 μM<EC75≤100 μM • C: […]
(§9) In the same manner as in Test Example 1, the efflux ability inhibition effect of the test compound on the drug efflux pump was evaluated using the bacterial proliferation ability in the presence of EM or LVFX as an index.

mexB (PA) strain = assay: Combinational effect with antibacterial agent against Pseudomonas aeruginosa (Test Examples 2 and 4): mexB (PA) strain with LVFX, TC or AZT at 1/4 MIC, EC99; assay type: cell-based; conditions: mexB (PA) strain, Test Example 4; for EC99, combinational effect with AZT, mexB (PA): combined with AZT at 1/4 MIC; for EC99, combinational effect with LVFX, mexB (PA): combined with LVFX at 1/4 MIC; for EC99, combinational effect with TC, mexB (PA): combined with TC at 1/4 MIC
How it was run: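 EC99 denotes the minimum test-compound concentration (range 0–800 μM) that suppresses ≥99% of growth, measured by OD595, when combined with ¼ MIC levofloxacin (LVFX), tetracycline or aztreonam. The efflux-pump mutant mexB (PA), expressing mainly MexAB-OprM, was inoculated at 10^4–5 CFU/well in CAMHB for 16–20 h.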

S-3769 strain = assay: Combinational effect with antibacterial agent against Pseudomonas aeruginosa (Test Examples 2 and 4): S-3769 strain with AMK or GM at 1/4 MIC, EC99; assay type: cell-based; conditions: S-3769 strain, Test Example 4; for EC99, combinational effect with AMK, S-3769 strain: combined with AMK at 1/4 MIC; for EC99, combinational effect with GM, S-3769 strain: combined with GM at 1/4 MIC
How it was run: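 EC99, the lowest test-compound concentration inhibiting growth by ≥99% (OD595), was measured with aminoglycoside AMK or GM held at ¼ MIC. Strain S-3769, a MexY-overexpressing clinical isolate, was cultured in CAMHB at 10^4 to 5 CFU/well for 16–20 h; compound range 0–800 μM.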

mexY (EC) strain = assay: Efflux ability inhibition effect on drug efflux pump MexY (Test Examples 1 and 3): proliferation (OD595) of mexY (EC) strain with EM or LVFX at 1/4 MIC, EC75; assay type: cell-based, Escherichia coli; conditions: Table 53, Test Example 3, same manner as Test Example 1; for EC75, mexY (EC) strain, EM: combined with EM at 1/4 MIC; for EC75, mexY (EC) strain, LVFX: combined with LVFX at 1/4 MIC
Method: as §1, §2, §3, §4, §5, §6, §7, §8, §9

CCOc1cccc(/C=C/c2nnn[nH]2)c1CN1CCN(C(=O)[C@H](N)C2CCN(CCc3ccccc3)CC2)CC1 [Example 33, Hydrobromide of (R,E)-1-(4-(2-(2-(1H-tetrazol-5-yl)vinyl)-6-ethoxybenzyl)piperazin-1-yl)-2-amino-2-(1-phenethylpiperidin-4-yl) ethan-1-one]
EC75, mexB (EC) strain, EM (mexB (EC) strain): B (25 μM<EC75≤100 μM)
EC75, mexB (EC) strain, LVFX (mexB (EC) strain): B (25 μM<EC75≤100 μM)

N[C@@H](C(=O)N1CCN(Cc2cccc3cc[nH]c23)CC1)C1CCN(CCc2cc(Cl)ccc2-c2ccccc2)CC1 [Example 40, Hydrobromide of (R)-1-(4-((1H-indol-7-yl)methyl)piperazin-1-yl)-2-amino-2-(1-(2-(4-chloro-[1,1′-biphenyl]-2-yl)ethyl)piperidin-4-yl) ethan-1-one]
EC75, mexB (EC) strain, LVFX (mexB (EC) strain): B (25 μM<EC75≤100 μM)

CCOc1cccc(F)c1CN1CCN(C(=O)[C@H](N)C2CCN(CCc3cc(Cl)ccc3-c3cccc(F)c3)CC2)CC1 [Example 60, Hydrobromide of (R)-2-amino-2-(1-(2-(4-chloro-3′-fluoro-[1,1′-biphenyl]-2-yl)ethyl)piperidin-4-yl)-1-(4-(2-ethoxy-6-fluorobenzyl)piperazin-1-yl)ethan-1-one]
EC75, mexB (EC) strain, EM (mexB (EC) strain): A (12.5 μM<EC75≤25 μM)

CCOc1cccc(F)c1CN1CCN(C(=O)[C@H](N)C2CCN(CCc3ccccc3C(=O)OC)CC2)CC1 [Example 129, Hydrochloride of Methyl (R)-2-(2-(4-(1-amino-2-(4-(2-ethoxy-6-fluorobenzyl)piperazin-1-yl)-2-oxoethyl)piperidin-1-yl)ethyl)benzoate]
EC75, mexB (EC) strain, EM (mexB (EC) strain): A (12.5 μM<EC75≤25 μM)

CCOc1cccc(F)c1CN1CCN(C(=O)[C@H](N)C2CCN(CCc3cccc(O)c3)CC2)CC1 [Example 130, Hydrochloride of (R)-2-amino-1-(4-(2-ethoxy-6-fluorobenzyl)piperazin-1-yl)-2-(1-(3-hydrophenethyl)piperidin-4-yl) ethan-1-one]
EC75, mexB (EC) strain, EM (mexB (EC) strain): B (25 μM<EC75≤100 μM)
EC75, mexB (EC) strain, LVFX (mexB (EC) strain): A (12.5 μM<EC75≤25 μM)

CCOc1cccc(F)c1CN1CCN(C(=O)[C@H](N)C2CCN(CCc3ccccc3N)CC2)CC1 [Example 146, Hydrobromide of (R)-2-amino-2-(1-(2-aminophenethyl)piperidin-4-yl)-1-(4-(2-ethoxy-6-fluorobenzyl)piperazin-1-yl) ethan-1-one]
EC75, mexB (EC) strain, EM (mexB (EC) strain): A (12.5 μM<EC75≤25 μM)

CCOc1cccc(F)c1CN1CCN(C(=O)[C@H](N)C2CCN(CCc3cn(-c4ccccc4F)c4ccccc34)CC2)CC1 [Example 157, Hydrobromide of (R)-2-amino-1-(4-(2-ethoxy-6-fluorobenzyl)piperazin-1-yl)-2-(1-(2-(1-(2-fluorophenyl)-1H-indol-3-yl)ethyl)piperidin-4-yl)ethan-1-one]
EC75, mexB (EC) strain, EM (mexB (EC) strain): A (12.5 μM<EC75≤25 μM)
EC75, mexB (EC) strain, LVFX (mexB (EC) strain): A (12.5 μM<EC75≤25 μM)

CCOc1cccc(F)c1CN1CCN(C(=O)[C@H](N)C2CCN(CCc3nsc4ccccc34)CC2)CC1 [Example 160, Hydrobromide of (R)-2-amino-2-(1-(2-(benzo[d]isothiazol-3-yl)ethyl)piperidin-4-yl)-1-(4-(2-ethoxy-6-fluorobenzyl)piperazin-1-yl)ethan-1-one]
EC75, mexB (EC) strain, EM (mexB (EC) strain): A (12.5 μM<EC75≤25 μM)
EC75, mexB (EC) strain, LVFX (mexB (EC) strain): A (12.5 μM<EC75≤25 μM)

CN(C)c1ccccc1CN1CCN(C(=O)CN2CCN(CCc3ccccc3)CC2)CC1 [Example 224, Hydrochloride of 1-(4-(2-(dimethylamino)benzyl)piperazin-1-yl)-2-(4-phenethylpiperazin-1-yl)ethan-1-one]
EC75, mexB (EC) strain, LVFX (mexB (EC) strain): A (12.5 μM<EC75≤25 μM)

N#Cc1ccccc1CN1CCN(C(=O)CN2CCN(CCc3ccccc3)CC2)CC1 [Example 234, Hydrochloride of 2-((4-(2-(4-phenethylpiperazin-1-yl)acetyl)piperazin-1-yl)methyl)benzonitrile]
EC75, mexB (EC) strain, LVFX (mexB (EC) strain): B (25 μM<EC75≤100 μM)

O=C(CN1CCN(CCc2ccccc2)CC1)N1CCN(Cc2ccccc2[N+](=O)[O-])CC1 [Example 235, Hydrochloride of 1-(4-(2-nitrobenzyl)piperazin-1-yl)-2-(4-phenethylpiperazin-1-yl) ethan-1-one]
EC75, mexB (EC) strain, EM (mexB (EC) strain): B (25 μM<EC75≤100 μM)
EC75, mexB (EC) strain, LVFX (mexB (EC) strain): B (25 μM<EC75≤100 μM)

O=C(CN1CCN(CCc2ccccc2)CC1)N1CCN(Cc2sccc2Cl)CC1 [Example 251, Hydrochloride of 1-(4-((3-chlorothiophen-2-yl)methyl)piperazin-1-yl)-2-(4-phenethylpiperazin-1-yl)ethan-1-one]
EC75, mexB (EC) strain, EM (mexB (EC) strain): A (12.5 μM<EC75≤25 μM)
EC75, mexB (EC) strain, LVFX (mexB (EC) strain): B (25 μM<EC75≤100 μM)

CCOc1cccc(F)c1CN1CCN(C(=O)[C@H](N)C2CC[N+](CCc3cc(Cl)ccc3-c3ccccc3)(CC(=O)[O-])CC2)CC1 (stereo partly drawn) [Example 567, Hydrobromide of (R)-2-(4-(1-amino-2-(4-(2-ethoxy-6-fluorobenzyl)piperazin-1-yl)-2-oxoethyl)-1-(2-(4-chloro-[1,1-biphenyl]-2-yl)ethyl)piperidin-4-ium-1-yl)acetate]
EC99, combinational effect with AZT, mexB (PA) (mexB (PA) strain): C (100 μM<EC99)
EC99, combinational effect with LVFX, mexB (PA) (mexB (PA) strain): C (100 μM<EC99)
EC99, combinational effect with TC, mexB (PA) (mexB (PA) strain): C (100 μM<EC99)
EC99, combinational effect with AMK, S-3769 strain (S-3769 strain): B (25 μM<EC99≤100 μM)
EC99, combinational effect with GM, S-3769 strain (S-3769 strain): C (100 μM<EC99)
EC75, mexY (EC) strain, EM (mexY (EC) strain): B (25 μM<EC75≤100 μM)
EC75, mexY (EC) strain, LVFX (mexY (EC) strain): B (25 μM<EC75≤100 μM)

CCOc1cccc(F)c1CN1CCN(C(=O)[C@H](N)C2CCN(CCc3cc(Cl)ccc3-c3c[nH]ccc3=O)CC2)CC1 [Example 577, Hydrochloride of (R)-3-(2-(2-(4-(1-amino-2-(4-(2-ethoxy-6-fluorobenzyl)piperazin-1-yl)-2-oxoethyl)piperidin-1-yl)ethyl)-4-chlorophenyl)pyridine-4(1H)-one]
EC99, combinational effect with AZT, mexB (PA) (mexB (PA) strain): B (25 μM<EC99≤100 μM)
EC99, combinational effect with LVFX, mexB (PA) (mexB (PA) strain): B (25 μM<EC99≤100 μM)
EC99, combinational effect with TC, mexB (PA) (mexB (PA) strain): B (25 μM<EC99≤100 μM)
EC99, combinational effect with AMK, S-3769 strain (S-3769 strain): C (100 μM<EC99)
EC99, combinational effect with GM, S-3769 strain (S-3769 strain): C (100 μM<EC99)
EC75, mexY (EC) strain, LVFX (mexY (EC) strain): A (12.5 μM<EC75≤25 μM)

CCSc1cc(F)ccc1CN1CCN(C(=O)[C@H](N)C2CCN(CCc3cc(Cl)ccc3-c3ccccc3Cl)CC2)CC1 [Example 599, Hydrochloride of (R)-2-amino-2-(1-(2-(2′,4-dichloro-[1,1-biphenyl]-2-yl)ethyl)piperidin-4-yl)-1-(4-(2-(ethylthio)-4-fluorobenzyl)piperazin-1-yl)ethan-1-one]
EC99, combinational effect with AZT, mexB (PA) (mexB (PA) strain): S (EC99≤12.5 μM)
EC99, combinational effect with LVFX, mexB (PA) (mexB (PA) strain): S (EC99≤12.5 μM)
EC99, combinational effect with TC, mexB (PA) (mexB (PA) strain): S (EC99≤12.5 μM)
EC99, combinational effect with AMK, S-3769 strain (S-3769 strain): B (25 μM<EC99≤100 μM)
EC99, combinational effect with GM, S-3769 strain (S-3769 strain): S (EC99≤12.5 μM)
EC75, mexY (EC) strain, EM (mexY (EC) strain): A (12.5 μM<EC75≤25 μM)
